Values of other authors in US20240082151A1, “ORALLY IMPLANTABLE DRUG DELIVERY DEVICE” (priority 2019, published 2024).

Columns and labels:
HIV = conditions: target for effective HIV prevention
[1] = target TFV-DP in PBMCs 50 fmol per million cells; PB-PK simulation (ref 33)
[2] = another study (ref 34)

steady state plasma CAB concentration, four times the protein adjusted IC90 (PA-IC90) (HIV) [µg/mL] | SMILES | linear subcutaneous TAF release rate estimated to lead to protective TFV-DP PBMC concentrations [1] [mg/day] | TAF release rate estimated to be protective [2]
0.66 | C[C@H]1CO[C@@H]2Cn3cc(C(=O)NCc4ccc(F)cc4F)c(=O)c(O)c3C(=O)N12 [CAB, Cabotegravir] | – | –
– | CC(C)OC(=O)[C@H](C)N[P@](=O)(CO[C@H](C)Cn1cnc2c(N)ncnc21)Oc1ccccc1 [TAF, Tenofovir alafenamide] | 0.5 | ca. 0.3 mg d^−1
